Like-named read-outs stand apart in the source and are kept apart here.
Experiments:
human FGFR4 = molecular target: T1, human FGFR4 (Homo sapiens, UniProt P22455); experiment: FGFR4 enzymatic assay (HTRF KinEASE-TK); assay type: biochemical; details: wild-type human FGFR4 cytoplasmic domain (460-802), GST-tag; 60 min preincubation at 25° C.; ATP 200 μM; read-out: Potency (IC50), FGFR4 enzymatic assay
T1 construct: human FGFR4 cytoplasmic domain (460-802); GST (N); purchased Carna Biosciences 08-136
Method: The ability of compounds to inhibit human FGFR4 tyrosine kinase activities was determined using a commercially available HTRF® KinEASE™-TK kit (CISBIO, Cat #62TK0PEC) according to the manufacturer's protocol. Wild-type human FGFR4 cytoplasmic domain (460-802) with N-terminal GST-tag was purchased from Carna Biosciences (Carna, Cat #08-136) and used in the kinase enzymatic assay. This assay, run in a 384-well plate format, is a generic method for measuring tyrosine kinase activities using one substrate and a universal detection system. It involves two steps: (1) Enzymatic step: the biotin labeled TK Substrate is incubated with the kinase and then ATP is added to start the enzymatic reaction; during this step, FGFR4 will phosphorylate the TK Substrate-biotin. (2) Detection step: The TK-Antibody labeled with Eu^3+-Cryptate can recognize the phosphorylated TK Substrate-biotin. When the streptavidin-XL665 conjugate binds the biotin, a FRET signal will be detected. Briefly, human FGFR4 (0.25 μg/ml) in the enzymatic buffer solutions (250 mM HEPES, pH7.0, 0.1% NaN3, 0.05% BSA, 0.5 mM Orthovanadate) were mixed with various concentrations of the test compound (dissolved in 100% DMSO). These solutions were incubated for 60 min at 25° C., and subsequently a mixture of substrate peptide and ATP was added with the final peptide and ATP concentrations at 0.3 μM and 200 μM respectively. The final reaction mixture of enzyme-substrate-ATP-compound was incubated for 40 min at 37° C. Meanwhile the detection mixture containing the TK-antibody and Streptavidin-XL665 diluted in the detection buffer (50 mM HEPES, pH7.0, with additives) was prepared, and added to the reaction mixture at final concentrations of 25 nM and 18.5 nM respectively. After incubation for 60 min at 25° C., the FRET signal of the final solution was measured at 665 nm and 612 nm emissions on a TECAN Spark 10M instrument (TECAN). The percent (%) inhibition at each concentration of a compound was calculated relative to the FRET signal in the Max and Min control wells contained within each assay plate. The Max control wells contained enzyme and substrate as 0% inhibition, and the Min control wells only contained substrate without enzyme as 100% inhibition. The concentrations and percent inhibition values for a test compound are plotted and the concentration of the compound required to achieve 50% inhibition (IC50) was determined with a four-parameter logistic dose response equation. Dose-response curves were generated using Prism (GraphPad Software, La Jolla, CA, US) to calculate IC50 values for each compound tested.

Hep3B cells = experiment: Cell-based FGFR4 proliferation assay (CellTiter-Glo); details: incubated with test compound for 3 days, CellTiter-Glo luminescence, read-out: Potency (IC50), Hep3B cell proliferation
Method: Hepatocellular carcinoma cell line Hep3B (ATCC, Cat #HB-8064) were cultured at 37° C., 5% CO2 in ATCC-formulated Eagle's Minimum Essential Medium supplemented with 10% fetal bovine serum; 1% Penicillin-Streptomycin.
(§1) Cell line: Hepatocellular carcinoma cell line Hep3B (ATCC, Cat #HB-8064).
In this assay, Hep3B cells are seeded in 384-well microplates, and after exposure to experimental compounds for […], CellTiter-Glo® Luminescent Cell Viability Assay kit (Promega, Cat #G7572) are used to determine the number of viable cells in the culture based on quantitation of the ATP present, which signals the presence of metabolically active cells. Luminescent signal is proportional to the amount of ATP present. The amount of ATP is directly proportional to the number of cells present in the culture, allowing drug-induced effects on cell proliferation to be measured.
Hep3B cells were plated at a density of 4×10^4/ml cells in a 384-well black/clear microplate with 20 μL per well of MEM Medium (Gibco Cat. #11095-080) supplemented with 10% fetal bovine serum; 1% Penicillin-Streptomycin, and cultured overnight at 37° C., 5% CO2. Various concentrations of the test compound (dissolved in 100% DMSO) were added to the wells of the cell plate. The cells were incubated with the test compound for 3 days at 37° C., 5% CO2. 5 μL of CellTiter-Glo® Reagent was added to each well of the cell plate. The cell plate was incubated for 5 min at 25° C. on a plate shaker (IKA MTS 2/4) at 300 rpm. Luminescence signals were read on a TECAN Spark 10M instrument (TECAN). […] The concentrations and percent inhibition values for a test compound were plotted and the concentration of the compound required to achieve 50% inhibition (IC50) is determined with a four-parameter logistic dose response equation. Dose-response curves were generated using Prism (GraphPad Software, La Jolla, CA, US) to calculate IC50 values for each compound tested.

[1] = test system: MAPK phosphorylation in Hep3B cells stimulated with FGF19; experiment: FGFR4 pMAPK AlphaLISA SureFire Ultra assay; assay type: cell-based; details: serum-starved, compound 1 hour, FGF19 100 ng/ml for 4 hours, read-out: Potency (IC50), FGFR4 pMAPK AlphaLISA
Description: as §1
In normal liver, circulating FGF19 drives liver cell proliferation and regulates bile acid production. However aberrant expression of FGF19 in the liver drives HCC tumorigenesis, upregulates MAPK phosphorylation in FGF19-amplified malignant liver cells. AlphaScreen SureFire technology allows the detection of phosphorylated proteins in cellular lysates in a highly sensitive, quantitative assay. In these assays, sandwich antibody complexes, which are only formed in the presence of analyte, are captured by AlphaScreen Donor and Acceptor beads, bringing them into close proximity. The excitation of the Donor bead provokes the release of singlet oxygen molecules that triggers a cascade of energy transfer in the Acceptor beads, resulting in the emission of light at 520-620 nm.
Hep3B cells were plated at a density of 1×10^4/ml cells in a 96-well plate (Corning #3599), with 100 uL per well of MEM Medium (Gibco Cat #11095-080) supplemented with 10% fetal bovine serum; 1% Penicillin-Streptomycin, and cultured overnight at 37° C., 5% CO2. Starve Hep3B cells in serum-free medium (SFM) supplemented with 0.2% BSA and incubate the cells again overnight at 37° C., 5% CO2. Various concentrations of the test compound (prepared in 2x SFM) were added to the wells of the cell plate and then incubated for 1 hour at 37° C., 5% CO2. 50 μL of FGF19 in SFM was added to each well of the cell plate with a final FGF19 concentration of 100 ng/ml, and cells treated with FGF19 were stimulated for 4 hours at 37° C., 5% CO2. 5 μL of freshly prepared Donor Mix and Acceptor Mix were sequentially added to the cell plate, each followed with 1 hour of incubation at 25° C., 5% CO2. Read the cell plate on an Alpha Technology-compatible plate reader at 570 nm AlphaScreen, using standard AlphaLISA settings. The percent (%) inhibition=((ZPE−Alpha-Signal)/(ZPE−HPE))*100% where the meanings of HPE and ZPE are as provided below.
HPE: Hundred Percent Effect, negative control well without FGF19 nor compound. Final concentration of DMSO is 0.1%.
ZPE: Zero Percent Effect, positive control well without compound. Final concentration of FGF19 is 100 ng/mL, DMSO is 0.1%.
The concentrations and percent inhibition values for a test compound were plotted and the concentration of the compound required to achieve 50% inhibition (IC50) was determined with a four-parameter logistic dose response equation. Dose-response curves were generated using Prism (GraphPad Software, La Jolla, CA, US) to calculate IC50 values for each compound tested.

T1 sequence (P22455 460-802): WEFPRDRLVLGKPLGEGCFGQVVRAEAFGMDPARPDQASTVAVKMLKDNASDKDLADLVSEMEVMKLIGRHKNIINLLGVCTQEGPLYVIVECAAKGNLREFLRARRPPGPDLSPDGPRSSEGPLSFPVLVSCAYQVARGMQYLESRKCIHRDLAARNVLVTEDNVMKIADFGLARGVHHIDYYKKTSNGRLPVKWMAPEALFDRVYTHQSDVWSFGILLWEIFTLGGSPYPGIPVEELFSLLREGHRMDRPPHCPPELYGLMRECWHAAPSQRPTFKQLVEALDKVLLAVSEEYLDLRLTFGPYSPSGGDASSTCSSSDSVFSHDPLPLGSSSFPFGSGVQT

| Structure (SMILES) | IC50 (human FGFR4) [nM] | IC50 (Hep3B cells; Homo sapiens, Hep3B, 72 h) [nM] | IC50 ([1]; Homo sapiens, Hep3B) [nM] | IC50 (Hep3B cells) [nM] | IC50 [1] [nM] |
| --- | --- | --- | --- | --- | --- |
| C=CC(=O)Nc1cnn(C)c1-c1n[nH]c2c1CCC(c1c(F)c(OC)cc(OC)c1F)C2 (single isomer, unassigned) [Compound S1-P1, N-(5-(6-(2,6-difluoro-3,5-dimethoxyphenyl)-4,5,6,7-tetrahydro-1H-indazol-3-yl)-1-methyl-1H-pyrazol-4-yl)acrylamide] | < 10 | 10 to 100 | < 10 |  |  |
| C=CC(=O)Nc1cnn(C)c1-c1n[nH]c2c1CCC(c1c(F)c(OC)cc(OC)c1F)C2 (single isomer, unassigned) [Compound S1-P2, N-(5-(6-(2,6-difluoro-3,5-dimethoxyphenyl)-4,5,6,7-tetrahydro-1H-indazol-3-yl)-1-methyl-1H-pyrazol-4-yl)acrylamide] | < 10 |  |  | 10 to 100 | < 10 |
| C=CC(=O)Nc1ncn(C)c1-c1n[nH]c2c1CCC(c1c(F)c(OC)cc(OC)c1F)C2 (single isomer, unassigned) [Compound S3-P2, N-(5-(6-(2,6-Difluoro-3,5-dimethoxyphenyl)-4,5,6,7-tetrahydro-1H-indazol-3-yl)-1-methyl-1H-imidazol-4-yl) Acrylamide] | 10 to 100 |  | > 100 | > 100 |  |
| C=CC(=O)Nc1cnn(C)c1-c1n[nH]c2c1COC(c1c(F)c(OC)cc(OC)c1F)C2 (single isomer, unassigned) [Compound S6-P1, N-(5-(6-(2,6-difluoro-3,5-dimethoxyphenyl)-1,4,6,7-tetrahydropyrano[4,3-c]pyrazol-3-yl)-1-methyl-1H-pyrazol-4-yl) acrylamide] | > 100 | > 100 |  |  |  |
| C=CC(=O)Nc1cnn(C)c1-c1n[nH]c2c1COC(c1c(F)c(OC)cc(OC)c1F)C2 (single isomer, unassigned) [Compound S6-P2, N-(5-(6-(2,6-difluoro-3,5-dimethoxyphenyl)-1,4,6,7-tetrahydropyrano[4,3-c]pyrazol-3-yl)-1-methyl-1H-pyrazol-4-yl) acrylamide] | 10 to 100 |  | 10 to 100 | > 100 |  |
| C=CC(=O)Nc1c[nH]nc1-c1n[nH]c2c1CCC(c1c(F)c(OC)cc(OC)c1F)C2 (single isomer, unassigned) [Compound S15-P2, N-(3-(6-(2,6-difluoro-3,5-dimethoxyphenyl)-4,5,6,7-tetrahydro-1H-indazol-3-yl)-1H-pyrazol-4-yl)acrylamide] | < 10 |  |  | < 10 |  |
| C=CC(=O)Nc1cn(CCN(C)C)nc1-c1n[nH]c2c1CCC[C@H](c1c(F)c(OC)cc(OC)c1F)C2 [Compound S31, (S)—N-(3-(7-(2,6-difluoro-3,5-dimethoxyphenyl)-1,4,5,6,7,8-hexahydrocyclohepta[c]pyrazol-3-yl)-1-(2-(dimethylamino)ethyl)-1H-pyrazol-4-yl)acrylamide] | < 10 | 10 to 100 |  |  |  |
| C=CC(=O)Nc1cn(CCN(C)C)nc1-c1n[nH]c2c1CCC[C@@H](c1c(F)c(OC)cc(OC)c1F)C2 [Compound S32, (R)—N-(3-(7-(2,6-difluoro-3,5-dimethoxyphenyl)-1,4,5,6,7,8-hexahydrocyclohepta[c]pyrazol-3-yl)-1-(2-(dimethylamino)ethyl)-1H-pyrazol-4-yl)acrylamide] | < 10 | < 10 |  |  |  |

Second part, the molecule after the results:

| IC50 (human FGFR4) [nM] | IC50 (Hep3B cells; Homo sapiens, Hep3B, 72 h) [nM] | IC50 ([1]; Homo sapiens, Hep3B) [nM] | IC50 (Hep3B cells) [nM] | IC50 [1] [nM] | Structure (SMILES) |
| --- | --- | --- | --- | --- | --- |
| > 100 | > 100 |  |  |  | C=CC(=O)Nc1ncn(C)c1-c1n[nH]c2c1CCC(c1c(F)c(OC)cc(OC)c1F)C2 (single isomer, unassigned) [Compound S3-P1, N-(5-(6-(2,6-Difluoro-3,5-dimethoxyphenyl)-4,5,6,7-tetrahydro-1H-indazol-3-yl)-1-methyl-1H-imidazol-4-yl) Acrylamide] |
| < 10 | < 10 | < 10 |  |  | C=CC(=O)Nc1cnn(C)c1-c1n[nH]c2c1CCC[C@@H](c1c(F)c(OC)cc(OC)c1F)C2 (single isomer, unassigned) [Compound S4-P1] |
| < 10 | 10 to 100 | < 10 |  |  | [2H]C([2H])([2H])Oc1cc(OC([2H])([2H])[2H])c(F)c(C2CCc3c(-c4c(NC(=O)C=C)cnn4C)n[nH]c3C2)c1F (single isomer, unassigned) [Compound S8-P1, N-(5-(6-(2,6-difluoro-3,5-bis(methoxy-d3)phenyl)-4,5,6,7-tetrahydro-1H-indazol-3-yl)-1-methyl-1H-pyrazol-4-yl) acrylamide] |
| < 10 |  |  | 10 to 100 |  | [2H]C([2H])([2H])n1ncc(NC(=O)C=C)c1-c1n[nH]c2c1CCC(c1c(F)c(OC)cc(OC)c1F)C2 (single isomer, unassigned) [Compound S16-P2, N-(5-(6-(2,6-difluoro-3,5-dimethoxyphenyl)-4,5,6,7-tetrahydro-1H-indazol-3-yl)-1-(methyl-d3)-1H-pyrazol-4-yl)acrylamide] |

— US11976058B2, “Aromatic derivatives, preparation methods, and medical uses thereof” (Bioardis LLC, priority 2019, dated 2024)
